Source: patent US10231967B2, “Compounds and their use as BACE inhibitors” (ASTRAZENECA AB, priority 2010, dated 2019)

These compounds were tested on sAPPβ release in SH-SY5Y cells (assay: sAPPβ release assay). Details: Homo sapiens, SH-SY5Y, 17 h, compounds incubated 17 h, MSD detection.
Format: cell-based
In short: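 SH-SY5Y cells were exposed to compounds at 1% DMSO final for 17 h at 37 °C. Secreted sAPPβ in 20 μL of medium was quantified by MSD electrochemiluminescence immunoassay with 1 nM detection antibody. Cell plates were then used in an ATP assay for cytotoxicity.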

In order of rising IC50:
1. [2H]C([2H])([2H])C#Cc1cncc(-c2ccc3c(c2)[C@@]2(N=C(C)C(N)=N2)[C@]2(CC[C@H](OC)CC2)C3)c1 [Example 114, (1r,1′R,4R)-4-Methoxy-5″-methyl-6′-{5-[(^2H3)prop-1-yn-1-yl]pyridin-3-yl}-3′H-dispiro[cyclohexane-1,2′-indene-1′,2″-imidazol]-4″-amine]  0.14 nM
2. [2H]C([2H])([2H])O[C@H]1CC[C@]2(CC1)Cc1ccc(-c3cc(Cl)cc(C#N)c3)cc1C21N=C(C)C(N)=N1 (stereo partly shown) [Example 125, 3-{(1r,4r)-4″-Amino-5″-methyl-4-[(^2H3)methyloxy]-3′H-dispiro[cyclohexane-1,2′-indene-1′,2″-imidazol]-6′-yl}-5-chlorobenzonitrile]  0.5 nM
3. CC#Cc1cncc(-c2ccc3c(c2)C2(N=C(C)C(N)=N2)[C@]2(CC[C@H](OCC)CC2)C3)c1 (stereo partly shown) [Example 135, (1r,4r)-4-Ethoxy-5″-methyl-6′-[5-(prop-1-yn-1-yl)pyridin-3-yl]-3′H-dispiro[cyclohexane-1,2′-indene-1′,2″-imidazol]-4″-amine]  0.85 nM
4. [2H]C([2H])([2H])O[C@H]1CC[C@]2(CC1)Cc1ccc(-c3cncc(Cl)c3)cc1C21N=C(C)C(N)=N1 (stereo partly shown) [Example 119, (1r,4r)-6′-(5-Chloropyridin-3-yl)-5′-methyl-4-[(^2H3)methyloxy]-3′H-dispiro[cyclohexane-1,2′-indene-1′,2″-imidazol]-4″-amine]  0.97 nM
5. CO[C@H]1CC[C@]2(CC1)Cc1ccc(OCC3CCC3)cc1C21N=C(C)C(N)=N1 (stereo partly shown) [Example 126, (1r,4r)-6′-(Cyclobutylmethoxy)-4-methoxy-5″-methyl-3′H-dispiro[cyclohexane-1,2′-indene-1′,2″-imidazol]-4″-amine]  1.4 nM
6. CO[C@H]1CC[C@]2(CC1)Cc1ccc(C#CC(C)C)cc1C21N=C(C)C(N)=N1 (stereo partly shown) [Example 113, (1r,4r)-4-Methoxy-5″-methyl-6′-(3-methylbut-1-yn-1-yl)-3′H-dispiro[cyclohexane-1,2′-indene-1′,2″-imidazol]-4″-amine]  1.6 nM
7. CO[C@H]1CC[C@]2(CC1)Cc1ccc(C#CC3CCC3)cc1C21N=C(C)C(N)=N1 (stereo partly shown) [Example 112, (1r,4r)-6′-(Cyclobutylethynyl)-4-methoxy-5″-methyl-3′H-dispiro[cyclohexane-1,2′-indene-1′,2″-imidazol]-4″-amine]  2 nM
8. [2H]C([2H])([2H])O[C@H]1CC[C@]2(CC1)Cc1ccc(-c3cc(F)cc(C#N)c3)cc1C21N=C(C)C(N)=N1 (stereo partly shown) [Example 118, 3-{(1r,4r)-4″-Amino-5″-methyl-4-[(^2H3)methyloxy]-3′H-dispiro[cyclohexane-1,2′-indene-1′,2″-imidazol]-6′-yl}-5-fluorobenzonitrile]  2.8 nM
9. CO[C@H]1CC[C@]2(CC1)Cc1ccc(-c3ccc4[nH]cc(C)c4c3)cc1C21N=C(C)C(N)=N1 (stereo partly shown) [Example 121, (1r,4r)-4-Methoxy-5″-methyl-6′-(3-methyl-1H-indol-5-yl)-3′H-dispiro[cyclohexane-1,2′-indene-1′,2″-imidazol]-4″-amine]  10 nM
10. CO[C@H]1CC[C@]2(CC1)Cc1ccc(-c3cnc4[nH]cc(C)c4c3)cc1C21N=C(C)C(N)=N1 (stereo partly shown) [Example 116, (1r,4r)-4-Methoxy-5″-methyl-6′-(3-methyl-1H-pyrrolo[2,3-b]pyridin-5-yl)-3′H-dispiro[cyclohexane-1,2′-indene-1′,2″-imidazol]-4″-amine]  12 nM
11. CCO[C@H]1CC[C@]2(CC1)Cc1ccc(-c3cc(F)cc(C#N)c3)cc1C21N=C(C)C(N)=N1 (stereo partly shown) [Example 132, 3-[(1r,4r)-4″-amino-4-ethoxy-5″-methyl-3′H-dispiro[cyclohexane-1,2′-indene-1′,2″-imidazol]-6′-yl]-5-fluorobenzonitrile]  17 nM
12. CCO[C@H]1CC[C@]2(CC1)Cc1ccc(-c3cncc(C(F)(F)F)c3)cc1C21N=C(C)C(N)=N1 (stereo partly shown) [Example 131]  24 nM
13. [2H]C([2H])([2H])O[C@H]1CC[C@]2(CC1)Cc1ccc(Br)cc1C21N=C(C)C(N)=N1 (stereo partly shown) [Example 117, (1r,4r)-6′-Bromo-5″-methyl-4-[(^2H3)methyloxy]-3′H-dispiro[cyclohexane-1,2′-indene-1′,2″-imidazol]-4″-amine]  47 nM
14. CC#Cc1cccc(-c2ccc3c(c2)C2(N=C(C)C(N)=N2)[C@]2(CC[C@H](OC)CC2)C3)c1Cl (stereo partly shown) [Example 123, (1r,4r)-6′-[2-Chloro-3-(prop-1-yn-1-yl)phenyl]-4-methoxy-5″-methyl-3′H-dispiro[cyclohexane-1,2′-indene-1′,2″-imidazol]-4″-amine]  135 nM
15. CCO[C@H]1CC[C@]2(CC1)Cc1ccc(Br)cc1C21N=C(C)C(N)=N1 (stereo partly shown) [Example 130, (1r,4r)-6′-Bromo-4-ethoxy-5″-methyl-3′H-dispiro[cyclohexane-1,2′-indene-1′,2″-imidazol]-4″-amine]  148 nM
16. CC1=NC2(N=C1N)c1cc(-c3cncc(Cl)c3)ccc1CC21CCC(C(F)F)CC1 (stereo not shown) [Example 129]  417 nM

Same assay, conditions: Homo sapiens, compounds incubated 17 h, MSD detection

In order of rising IC50:
1. CO[C@H]1CC[C@]2(CC1)Cc1ccc(-c3cncc(C(F)F)c3)cc1C21N=C(C)C(N)=N1 (stereo partly shown) [Example 120, (1r,4r)-6′-[5-(Difluoromethyl)pyridin-3-yl]-4-methoxy-5″-methyl-3′H-dispiro[cyclohexane-1,2′-indene-1′,2″-imidazol]-4″-amine]  3.1 nM
2. COCc1cc(-c2ccc3c(c2)C2(N=C(C)C(N)=N2)[C@]2(CC[C@H](OC)CC2)C3)cc(C#N)c1F (stereo partly shown) [Example 127, 5-[(1r,4r)-4″-Amino-4-methoxy-5″-methyl-3′H-dispiro[cyclohexane-1,2′-indene-1′,2″-imidazol]-6′-yl]-2-fluoro-3-(methoxymethyl)benzonitrile]  5.1 nM
3. CCO[C@H]1CC[C@]2(CC1)Cc1ccc(-c3cncc(Cl)c3)cc1C21N=C(C)C(N)=N1 (stereo partly shown) [Example 133, (1r,4r)-6′-(5-chloropyridin-3-yl)-4-ethoxy-5″-methyl-3′H-dispiro[cyclohexane-1,2′-indene-1′,2″-imidazol]-4″-amine]  5.5 nM
4. CCO[C@H]1CC[C@]2(CC1)Cc1ccc(-c3cc(C#N)cc(C(F)F)c3)cc1C21N=C(C)C(N)=N1 (stereo partly shown) [Example 134, 3-[(1r,4r)-4″-Amino-4-ethoxy-5″-methyl-3′H-dispiro[cyclohexane-1,2′-indene-1′,2″-imidazol]-6′-yl]-5-(difluoromethyl)benzonitrile]  7.7 nM
5. CC1=NC2(N=C1N)c1cc(-c3cc(F)cc(C#N)c3)ccc1CC21CCC(=O)CC1 (stereo not shown) [Example 115, 3-(4″-Amino-5″-methyl-4-oxodispiro[cyclohexane-1,2′-[1H]indene-1′(3′H),2″-[2H]imidazol]-6′-yl)-5-fluorobenzonitrile]  293 nM
6. CC1=NC2(N=C1N)c1cc(Br)ccc1CC21CCC(C(F)(F)F)CC1 (stereo not shown) [Example 124, 6′-Bromo-5″-methyl-4-(trifluoromethyl)-3′H-dispiro[cyclohexane-1,2′-indene-1′,2″-imidazol]-4″-amine]  6950 nM
